In patent publication US3933918A, “2-Allyloxy-4-chloro-acetophenone” (Kyowa Hakko Kogyo Co., Ltd., priority 1973, dated 1976):
Where a name gives a salt, the structure may show the parent alone.

Legend:
[1] = test system: coughs induced by electrical stimulation of central stump of the superior laryngeal nerve; assay: Antitussive effect on coughs induced by electrical stimulation of central stump of the superior laryngeal nerve in anesthetized cats; assay type: in vivo; details: Felis catus, iv, cat, i.v., fiducial limits (P = 0.05), read-out: AtD50 (50% antitussive dose)
Experimental: More than 4 groups of cats, each consisting of 6 animals of either sex weighing 2-3 kg are used. The animals are lightly anesthetized by intraperitoneal injection of 20 mg/kg of pentobarbital sodium. The test is conducted according to the method of Domenjoz (Arch. Exp. Path. u. Pharmakol, 215, 19 (1952)].
The changes of inner pressure of the trachea brought about by coughs are recorded. The animals are given graded doses of the test compound or the standard compound by intravenous injection.
The antitussive effect of the compounds is determined by the changes in both the amplitude and frequency of the cough curves and the duration of the changes. When the amplitude and/or the frequency of the coughs induced by a stimulus of moderate intensity are decreased by more than 20% as compared with those before administration of the drug and when the decrease lasts for more than 20 minutes, the effect is determined to be significant. On the basis of the criteria of evaluation, the AtD50 is calculated according to the method of Lichfield and Wilcoxon.

[2] = test system: coughs induced by mechanical stimulation on the mucosa of the tracheal bifurcation; assay: Comparison of equi-active antitussive doses for various routes of administration in anesthetized dogs; assay type: in vivo, dog; details: for Site of antitussive action: central nerve: conclusion in words; for Dose giving nearly the same antitussive effect: dog
Experimental: a. Comparison of equi-active doses for various routes of administration
Five dogs weighing 8-10 kg are used. Polyethylene tubes are previously installed in the animals in the femoral vein, the vertebral artery and the cerebello-medullary cistern. The animals are lightly anesthetized by intraperitoneal injection of 20 mg/kg of pentobarbital sodium. The hydrochloride of 2-allyloxy-4-chloro-β-piperidinopropiophenone is given through the polyethylene tubes. Coughs are induced by mechanical stimulation on the mucosa of the tracheal bifurcation. The doses necessary to obtain the same degree of antitussive effect as that obtained by the administration through the femoral vein are determined.

[3] = Acute toxicity in mice, determined as LD50; details: in vivo, mouse; for LD50 at 168 h: po, P.O., observed one week; for LD50 at 72 h: sc, S.C., observed 72 hours
Experimental: (§1) Acute Toxicity in Mice and in Rats -- Determined as LD50
a. More than 5 groups of male ddy-strain mice, each consisting of 10 animals weighing 18-20 g are used. The animals are given graded doses of the test compound or the standard compound by subcutaneous injection and are observed for 72 hours.
b. More than 6 groups of male dd-strain mice, each consisting of 20 animals weighing 18-20 g are used. The animals are given graded doses of the test compound or the standard compound orally and are observed for one week.
(§2) The LD50 is calculated according to the method of Litchfield and Wilcoxon [J. Pharmacol. & Exper. Therap. 96, 99 (1949)].

[4] = test system: pulmonary stretch receptor; assay: Effect on the pulmonary stretch receptor impulses in guinea pigs; assay type: in vivo, guinea pig; details: for Time required to return to the level before treatment with drug / Change of voltage of stretch receptor impulses (as compared with that before treatment with drug): reduced to / Change of voltage of stretch receptor impulses (as compared with that before treatment with drug): guinea pig
Text: b. Effect on the pulmonary stretch receptor impulses
Five guinea pigs weighing 400-600 g are used. The animals are anesthetized by subcutaneous injection of 1.2 g/kg of urethane and disposed in a supine position. The chest is opened under artificial ventilation. The left vagus nerve is sectioned at the cervical region and the peripheral stumps is placed on a bipolar platinum electrode. The impulses from the pulmonary stretch receptors are observed on an oscilloscope and recorded with a long-recording camera.
The animals are given graded doses of the hydrochloride of 2-allyloxy-4-chloro-β-piperidinopropiophenone by intravenous injection.
The action of the compound on a peripheral nerve is determined by the change of the voltage of the stretch receptor impulses.
As a control, the same test is conducted using benzonatate which is known as a peripherally acting antitussive.

[5] = test system: coughs induced by mechanical stimulation of the tracheal mucosa; assay: Antitussive effect on coughs induced by mechanical stimulation of the tracheal mucosa in dogs ("Coughing dog" method); assay type: in vivo; details: for ED50: Canis lupus familiaris, iv, dog, mechanical stimulation, i.v., fiducial limits (P = 0.05), read-out: AtD50 (50% antitussive dose)
Experimental: a. Effect on coughs induced by mechanical stimulation of the tracheal mucosa in dogs
More than 4 groups of dogs, each consisting of 5 animals of either sex weighing 6-10 kg are used. The test is conducted according to "Coughing dog" method [Jap. J. Pharmacol. 2, 7-13 (1952); Pharm. Bull. (Japan) 2 298 (1954); and Jap. J. Pharmacol. 4 130 (1955)]. Coughs are induced by mechanical stimulation with a bristle stimulator made of pig bristles on the tracheal bifurcation through a chronically-built tracheal fistula.
Stimulation is applied by constantly and intensely moving the stimulator up and down 10 times for 20 seconds and the stimulation is repeated every 5 minutes. The changes of the inner pressure of the trachea brought about by coughs are recorded on a smoked paper. The animals are given graded doses of the test compound or the standard compound by intravenous injection.
The antitussive effect of the compounds is determined by the changes in both the amplitude and frequency of the cough curves on the smoked paper and the duration of such changes. When the amplitude and/or the frequency are decreased by more than 20% as compared with those before administration of the drug and when the decrease lasts for more than 20 minutes, the effect is determined to be significant. On the basis of the criteria of evaluation, the 50% antitussive dose (hereinafter referred to as AtD50) is calculated according to the method of Litchfield and Wilcoxon.

[6] = Acute toxicity in rats, determined as LD50; details: in vivo, po; rat, P.O., observed one week
Experimental: as §1
c. More than 5 groups of male Wistar strain rats, each consisting of 15 animals weighing 110-150 g are used. The animals are given graded doses of the test compound and the standard compound orally and are observed for one week.
as §2

[7] = test system: coughs induced by mechanical stimulation of the tracheal mucosa; assay: Antitussive effect on coughs induced by mechanical stimulation of the tracheal mucosa in anesthetized cats ("Coughing cat" method); assay type: in vivo; details: for ED50: Felis catus, iv, cat, mechanical stimulation, i.v., fiducial limits (P = 0.05), read-out: AtD50 (50% antitussive dose)
Experimental: b. Effect on coughs induced by mechanical stimulation of the tracheal mucosa in anesthetized cats
More than 4 groups of cats, each consisting of 6 animals of either sex weighing 2-3 kg are used. The animals are lightly anesthetized by intraperitoneal injection of 20 mg/kg of pentobarbital sodium. The test is conducted according to "Coughing cat" method [Folia Pharmacol japon. 55 99 (1959)].
Coughs are induced in the same manner as described above except that a bristle stimulator made of whiskers of rabbit is used. The AtD50 is calculated in the same manner as described above.

In the case of `C=CCOc1cc(Cl)ccc1C(=O)CCN1CCCCC1` [2-Allyloxy-4-Chloro-β-Piperidinopropiophenone Hydrochloride], the ED50 [1] is reported as 4.2 mg/kg, the “Site of antitussive action: central nerve” value ([2]; Hydrochloride) is reported as “exerts its action on the central nerve” and the “Dose giving nearly the same antitussive effect” value ([2]; cerebello-medullary cistern) is reported as 0.06 to 0.1 mg/kg. The “Dose giving nearly the same antitussive effect” value ([2]; femoral vein) was 4.30 mg/kg, the “Dose giving nearly the same antitussive effect” value ([2]; vertebral artery) was 0.4 to 0.8 mg/kg and the “Ratio of effective doses for the three routes compared with codeine” value ([2]; statement in words) was “almost the same as that obtained by using codeine”. The LD50 at 168 h [3] was 240 mg/kg, the LD50 at 72 h [3] was 105 mg/kg and the “Time required to return to the level before treatment with drug” value (shortened to “Time required to return”) ([4]; i.v., 5.0 mg/kg) was 10 to 20 min. The “Change of voltage of stretch receptor impulses (as compared with that before treatment with drug): reduced to” value (shortened to “Change of voltage … reduced to”) ([4]; i.v., 10.0 mg/kg) was 1/2, the “Time required to return” value ([4]; i.v., 10.0 mg/kg) was ~30 min and the “Change of voltage of stretch receptor impulses (as compared with that before treatment with drug)” value ([4]; i.v., 1.0-2.0 mg/kg) was “none”. For the same compound, the “Effect on the impulses of the pulmonary stretch receptor” value ([4]; statement in words) was “repress the impulses of the pulmonary stretch receptor”, the ED50 [5] was 3.3 mg/kg and the “Antitussive effect compared with codeine phosphate” value ([5]; dogs, statement in words) was “antitussive effect equal to codeine phosphate”. The LD50 at 168 h [6] was 1020 mg/kg, the ED50 [7] was 4.8 mg/kg and the “Antitussive effect compared with codeine phosphate” value ([7]; cats, statement in words) was “antitussive effect equal to codeine phosphate”.
With `C=CCOc1cc(Cl)ccc1C(=O)CCN1CCCCC1` [2-allyloxy-4-chloro-β-piperidinopropiophenone] the “Site of antitussive action: central nerve” value [2] was “acts centrally” and the “Site of antitussive action: peripheral nerves” value ([4]; conclusion in words) was “exerts a considerable action on peripheral nerves”.
With `CCCCNc1ccc(C(=O)OCCOCCOCCOCCOCCOCCOCCOCCOCCOC)cc1` [Benzonatate] the “Change of voltage … reduced to” value ([4]; 1.0 mg/kg) was 3/4, the “Time required to return” value ([4]; 1.0 mg/kg) was 10 min and the “Change of voltage … reduced to” value ([4]; 2.0 mg/kg) was 1/2. The “Time required to return” value ([4]; 2.0 mg/kg) was 30 min, the “Change of voltage … reduced to” value ([4]; 4.0 mg/kg) was “zero” and the “Time required to return” value ([4]; 4.0 mg/kg) was 30 to 40 min. For the same compound, the “Change of voltage of stretch receptor impulses (as compared with that before treatment with drug)” value ([4]; 0.1-0.5 mg/kg) was “none”.
Work on `COc1ccc2c3c1O[C@H]1[C@@H](O)C=C[C@H]4[C@@H](C2)N(C)CC[C@@]341` [Codeine phosphate, reference compound] yielded an ED50 [1] of 2.1 mg/kg, an LD50 at 168 h [3] of 729 mg/kg and an LD50 at 72 h [3] of 191 mg/kg. It also gave an ED50 [5] of 2.5 mg/kg, an LD50 at 168 h [6] of 807 mg/kg and an ED50 [7] of 2.3 mg/kg.
